The record followed here is article PMC9586938, “Picomolar fluorescent probes for compound affinity determination to carbonic anhydrase IX expressed in live cancer cells” (Scientific Reports, 2022).

In data set [1] the target is T1, CAIX on live HeLa cells (Homo sapiens, UniProt Q16790).
T1 construct: recombinant CAIX and endogenous CAIX expressed on the cell surface; endogenous in cells; host or cells: HeLa (WT), grown under hypoxia (1% O2)
Put plainly: Fluorescence microscopy (widefield, SRRF/TIRF) of live HeLa cells stained with fluorescein-labeled compounds. The following applies: 10 nM; for staining of live HeLa cells grown under hypoxia: 5 min. Type of data set: cell-based.

Data set [2] concerns the target T2, CAII (Homo sapiens, UniProt P00918).
T2 construct: made in house; host or cells: E. coli
The experiment in a line: Thermal shift assay (TSA), recombinant CAII. The following applies: 37 °C, pH 7.0, observed (not intrinsic). Type of data set: binding. The procedure: (§1) The binding affinities of all fluorescein-containing compounds were determined for all 12 catalytically active CA isozymes by the thermal shift assay (TSA). […] However, the SFA technique cannot determine the affinities lower than the enzyme concentration used in the assay. […] In addition, we used isothermal titration calorimetry (ITC), the standard assay to determine affinity and enthalpy of protein–ligand binding. […] Therefore, ITC was used only to determine the enthalpy of interaction and confirm the ordering of compound affinities.
All twelve catalytically active human CA isozymes were prepared recombinantly as previously described. Isozymes CAIX, CAXII, and CAXIV were the catalytic domains of the proteins[14],[38]. All isozymes were expressed in E. coli except CAIX that has been prepared in mammalian cells. The proteins were chromatographically purified on ion-exchange or benzene sulfonamide containing affinity columns. Protein MW was confirmed by mass spectrometry with 1 Da precision as predicted from gene sequence.
Compound affinities for the twelve catalytically active CA isozymes were determined by the thermal shift assay as previously described[30],[39]. Protein solutions containing 1,8-anilinonaphthalenesulfonate fluorescent probe were heated from 25 to 100 °C at a rate of one degree per minute while following the fluorescence of the probe. The temperature scanning curves provided the melting temperature Tm of the protein. The Tm has a distinct dependence on the concentration of a compound. Stronger binders shift the Tm to a greater extent than the weak binders. The Tm dependencies on compound concentration were fit to obtain the affinity Kd[40].

Data set [3] has as its target T3, CAIX expressed on HeLa cells (Homo sapiens, UniProt Q16790).
T3 construct: recombinant CAIX and endogenous CAIX expressed on the cell surface; endogenous in cells; host or cells: HeLa (WT), grown under hypoxia (1% O2)
Put plainly: Fluorescein-labeled compound dosing to hypoxia-grown WT HeLa cells (Morrison single-site model). Type of data set: cell-based. The procedure: HeLa cell culture was grown in 12-well plates, either under hypoxia (1% O2) or under normoxia (21% O2), for 70 to 76 h. The medium was removed. Then 200 µL of serially diluted compound (twelve twofold steps) in the FB medium, usually starting at 80 nM (80, 40, 20, …, 0 nM), was added and incubated at 37 ℃ under normoxia in the CO2 incubator for 20 min (2 or 5 min in some experiments where specified). Then the compound solution was removed and the cells were washed 3 times for 1.5–2 min with 400 µL of PBS at RT. Then 180 µL of TrypLe express enzyme (ThermoFisher) was added to each well and incubated in CO2 incubator for 5 min to 10 min until the cells deattached from the surface. After addition of 20 µL of Defined Trypsin Inhibitor solution (ThermoFisher), cells were resuspended by pipetting and 150 µL of the suspension from each well were transferred to black Thermo Scientific™ Nunc MicroWell 96-Well Optical-Bottom Plates for fluorescence and absorbance measurements. The fluorescence was recorded at 485 nm excitation and 520 nm emission wavelengths in the plate reader (Synergy HTX, BioTek). The absorbance was recorded at 650 nm to measure the optical density of the cell suspension.
The compound solution was prepared by weighing 3–5 mg of a purified compound and dissolving in DMSO at 10 mM concentration. The 1 mM compound stock in DMSO was prepared by taking 10 µL of 10 mM stock and adding to 90 µL DMSO. The 10 µM compound stock was prepared by taking 10 µL of 1 mM compound stock in DMSO and adding 990 µL of the FB medium (this stock contained 1% of DMSO). Then 80 nM compound solution was prepared by taking 10 µL of 10 µM solution and adding 1.24 mL of the FB medium and placed to the first Eppendorf tube. Then 300 µL of FB medium were added to the Eppendorf tubes 2 to 12. A serial dilution was performed by taking 300 µL of solution from tube 1 to 2, then from 2 to 3 and so on while mixing vigorously at each step. No solution was transferred to the last tube thus it contained only FB medium and no compound. Then 200 µL from 12 tubes were transferred to the 12 wells of cell culture-containing 12-well plate, starting from the lowest concentration.
Application of fluorescently labeled ligand GZ19-32 to cancer cells expressing CAIX will stain the cells in dose-dependent manner. The fraction of saturation increases from 0 to 1. The fraction of bound GZ19-32 (f) is equal to the molar concentration of bound GZ19-32 per molar concentration of total available CAIX, the so-called total protein Pt . f=GZ19-32bound/Pt
Upon GZ19-32 dosing, the observed fluorescence signal F can be modeled to change from the minimal background signal ( Fmin ) to maximal saturated value ( Fmax ): F=Fmin+Fmax-Fminf […]

The target of data set [4] is T4, CAIX expressed on live HeLa cells (Homo sapiens, UniProt Q16790).
T4 construct: recombinant CAIX and endogenous CAIX expressed on the cell surface; endogenous in cells; host or cells: HeLa (WT), grown under hypoxia (1% O2)
Put plainly: Competition of unlabeled compound with 10 nM GZ19-32 on hypoxic HeLa cells (competitive binding model). It counts as cell-based. The following applies: fit parameter of the competitive binding model, HeLa cells; read-out: KdB (competing fluorescent compound, component B).

The target in data set [5] is T5, CAIV (Homo sapiens, UniProt P22748).
T5 construct: made in house; host or cells: E. coli
T5 sequence (P22748 19-312): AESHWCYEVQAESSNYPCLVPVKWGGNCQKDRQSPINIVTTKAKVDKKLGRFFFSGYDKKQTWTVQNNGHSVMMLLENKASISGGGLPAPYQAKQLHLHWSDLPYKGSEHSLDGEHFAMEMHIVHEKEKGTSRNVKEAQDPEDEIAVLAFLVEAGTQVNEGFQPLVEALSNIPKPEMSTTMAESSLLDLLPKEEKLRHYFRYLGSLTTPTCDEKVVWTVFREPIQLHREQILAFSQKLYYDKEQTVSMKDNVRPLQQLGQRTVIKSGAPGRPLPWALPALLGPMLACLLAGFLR
The experiment in a line: Thermal shift assay (TSA), recombinant CAIV. It counts as binding. The following applies: 37 °C, pH 7.0, observed (not intrinsic).

The target of data set [6] is T6, catalytic domain of recombinant human CAIX (Homo sapiens, UniProt Q16790).
T6 construct: Isozymes CAIX, CAXII, and CAXIV were the catalytic domains of the proteins; made in house; host or cells: mammalian cells
Put plainly: Stopped-flow assay (SFA) of inhibition of CAIX catalytic activity. It counts as biochemical. The protocol:
as §1
Inhibition of the CAIX catalytic activity (hydration reaction of CO2 to acid protons and bicarbonate) by selected compounds has been determined as previously described[41],[42]. The CA enzymatic activity and its inhibition were followed by the rate of change in pH spectrophotometrically followed by the change in color of indicator phenol red. Addition of increased concentrations of an inhibitor slowed the rate of the change in pH. The assay was performed using the stopped-flow equipment. The rate of spontaneous acidification due to CO2 hydration in water was subtracted from the enzymatically catalyzed rate.

Usually melting point stands for the temperature of the solid-liquid transition. For the molecule `NS(=O)(=O)c1c(F)c(F)c(S(=O)(=O)CCC(=O)Nc2ccc3c(c2)C(=O)OC32c3ccc(O)cc3Oc3cc(O)ccc32)c(NC2CCCCCCC2)c1F` [GZ19-32, 3-((2-(cyclooctylamino)-3,5,6-trifluoro-4-sulfamoylphenyl)sulfonyl)-N-(3',6'-dihydroxy-3-oxo-3H-spiro[isobenzofuran-1,9'-xanthen]-5-yl)propanamide], the melting point lay in the range of 189 to 190 °C. In addition, the “staining of live HeLa cells grown under hypoxia” value in data set [1] is given as “labeled the cell membrane”. In addition, in data set [1] (hypoxia-grown live HeLa cells), the “Manders overlap coefficient M1, colocalization with H7 CAIX antibody” value is reported as 0.82; the “Manders overlap coefficient M2, colocalization with H7 CAIX antibody” value came out at 0.65; the “object based spot collocalization with H7 CAIX antibody” value stood at 0.75; the “pixel based Person's correlation coefficient, colocalization with H7 CAIX antibody” value was 0.82. The “Pearson co-localization coefficient with CAXII-selective 1B10 antibody” value in data set [1] (hypoxia-grown live HeLa cells, SRRF/TIRF) was found to be 0.02. Besides, the Kd in data set [2] stood at 14 nM. The “number of bound molecules per HeLa cell” value in data set [3] (approximately 80 h of growth under hypoxia) is “exceeded 1 million”. Also, the “concentration at which saturation was reached” value in data set [3] (hypoxia-grown HeLa cells) is on record as “approximately 10 nM”. In addition, the Kd in data set [4] came to 0.2 nM. The Kd in data set [5] worked out at 100 nM.
Usually Ki stands for a dissociation constant, usually derived from enzyme kinetics or from competition with a known ligand. With “3-((2-(cyclooctylamino)-3,5,6-trifluoro-4-(methylsulfonyl)phenyl)sulfonyl)-N-(3',6'-dihydroxy-3-oxo-3H-spiro[isobenzofuran-1,9'-xanthen]-5-yl)propanamide and 3-((3-(cyclooctylamino)-2,5,6-trifluoro-4-(methylsulfonyl)phenyl)sulfonyl)-N-(3',6'-dihydroxy-3-oxo-3H-spiro[isobenzofuran-1,9'-xanthen]-5-yl)propanamide [GZ20-37]”, in data set [1], the “staining of live HeLa cells grown under hypoxia” value was “did not bind”. Further, the Kd in data set [2] and in data set [5] was > 100000 nM in each case. Besides, in data set [3] (same conditions as GZ19-32, up to about 100 nM), the “binding to hypoxia-grown HeLa cells in the nM concentration region” value is given as “did not bind”. Besides, the inhibition constant Ki in data set [6] was found to be 1500 nM.
